Numbered stars: 1 amine (or outer) side, 2 acyl side, 3 side chain; on linkers, the order of the positions; unused ones are H or OH. Square brackets hold non-standard residues; d marks the D form. Peptide text beside a SMILES is read from it. X1 = O=C1[C@@H](N[*:1])Cc2ccccc2CN1CCC(=O)[*:2]; Dmt = Cc1cc(O)cc(C)c1C[C@H](N)C(=O)O
Columns and labels:
[1] = target: T1, Neuropeptide FF receptor 2 (Homo sapiens, UniProt Q9Y5X5); test: Agonist activity at human NPFFR2 expressed in CHO cells assessed as inhibition of forskolin-induced cAMP accumulation incubated for 30 mins by LANCE cAMP assay; format: functional, cell-based
[2] = target: T1, Neuropeptide FF receptor 2; test: Agonist activity at NPFFR2 (unknown origin) expressed in HEK293 cells assessed as inhibition of forskolin-induced cAMP accumulation incubated for 30 mins relative to control; format: functional, cell-based; details: filed as agonist
[3] = target: T2, Kappa-type opioid receptor (Homo sapiens, UniProt P41145); test: Agonist activity at human kappa opioid receptor expressed in HEK293 cells assessed as inhibition of forskolin-induced cAMP accumulation incubated for 15 mins followed by forskolin addition in presence of IBMX by Glo-sensor cAMP assay; format: functional, cell-based
Nociceptin receptor = Nociceptin receptor (Homo sapiens, UniProt P41146); test: Agonist activity at human nociceptin receptor expressed in HEK293 cells assessed as inhibition of forskolin-induced cAMP accumulation incubated for 15 mins followed by forskolin addition in presence of IBMX by Glo-sensor cAMP assay; format: functional, cell-based
[4] = target: Mu-type opioid receptor (Homo sapiens) (UniProt P35372); test: Agonist activity at human mu-opioid receptor expressed in HEK293 cells assessed as inhibition of forskolin-induced cAMP accumulation preincubated for 15 mins followed by forskolin addition in presence of IBMX by Glo-sensor cAMP assay relative to control; format: functional, cell-based; details: filed as agonist
[5] = target: Delta-type opioid receptor (Homo sapiens) (UniProt P41143); test: Agonist activity at human delta-opioid receptor expressed in HEK293 cells assessed as inhibition of forskolin-induced cAMP accumulation preincubated for 15 mins followed by forskolin addition in presence of IBMX by Glo-sensor cAMP assay relative to control; format: functional, cell-based; details: filed as agonist
[6] = target: T2, Kappa-type opioid receptor; test: Agonist activity at human kappa opioid receptor expressed in HEK293 cells assessed as inhibition of forskolin-induced cAMP accumulation incubated for 15 mins followed by forskolin addition in presence of IBMX by Glo-sensor cAMP assay relative to control; format: functional, cell-based; details: filed as agonist
[7] = target: T3, Neuropeptide FF receptor 1 (Homo sapiens, UniProt Q9GZQ6); test: Agonist activity at human NPFFR1 expressed in CHO cells by [35S]-GTP S binding assay relative to control; format: cell-based; details: filed as agonist
[8] = target: T1, Neuropeptide FF receptor 2; test: Agonist activity at human NPFFR2 expressed in CHO cells by [35S]-GTP S binding assay relative to control; format: cell-based; details: filed as agonist
[9] = target: T3, Neuropeptide FF receptor 1; test: Displacement of [125I]YVP from human NPFFR1 expressed in CHO cells; format: cell-based
[10] = target: T1, Neuropeptide FF receptor 2; test: Displacement of [125I]Tyr-NPFF from human NPFFR2 expressed in green monkey Cos-1 cells; format: cell-based
[11] = target: T3, Neuropeptide FF receptor 1; test: Antagonist activity at human NPFFR1 expressed in CHO cells assessed as reversal of NPVF-induced inhibition of forskolin-stimulated cAMP accumulation incubated for 10 mins by liquid scintillation counting method; format: functional, cell-based
[12] = target: T2, Kappa-type opioid receptor; test: Agonist activity at kappa opioid receptor (unknown origin) expressed in HEK-293A cells assessed as inhibition of forskolin-induced cAMP accumulation preincubated for 30 mins followed by [3H] cAMP addition measured after 2 hrs by scintillation counting method; format: functional, cell-based, HEK293-A
[13] = target: T3, Neuropeptide FF receptor 1; test: Agonist activity at NPFFR1 (unknown origin) expressed in HEK-293A cells assessed as inhibition of forskolin-induced cAMP accumulation preincubated for 30 mins followed by [3H] cAMP addition measured after 2 hrs by scintillation counting method; format: functional, cell-based, HEK293-A
[14] = target: T1, Neuropeptide FF receptor 2; test: Agonist activity at NPFFR2 (unknown origin) expressed in HEK-293A cells assessed as inhibition of forskolin-induced cAMP accumulation preincubated for 30 mins followed by [3H] cAMP addition measured after 2 hrs by scintillation counting method; format: functional, cell-based, HEK293-A
[15] = target: T3, Neuropeptide FF receptor 1; test: Agonist activity at NPFFR1 (unknown origin) expressed in mouse NIH3T3 cells by receptor selection and amplification technology assay relative to control; format: cell-based
[16] = target: T1, Neuropeptide FF receptor 2; test: Agonist activity at NPFFR2 (unknown origin) expressed in mouse NIH3T3 cells by receptor selection and amplification technology assay relative to control; format: cell-based; details: filed as agonist
[17] = target: T3, Neuropeptide FF receptor 1; test: Agonist activity at NPFFR1 (unknown origin) expressed in mouse NIH3T3 cells by receptor selection and amplification technology assay; format: cell-based
[18] = target: T3, Neuropeptide FF receptor 1; test: Agonist activity at NPFFR1 (unknown origin) expressed in HEK293T cells harboring EP2 incubated for 15 mins by cAMP assay relative to control; format: functional, cell-based
[19] = target: T3, Neuropeptide FF receptor 1; test: Agonist activity at NPFFR1 (unknown origin) expressed in HEK293T cells harboring EP2 incubated for 15 mins by cAMP assay; format: functional, cell-based
[20] = target: T1, Neuropeptide FF receptor 2; test: Agonist activity at NPFFR2 (unknown origin) expressed in HEK293T cells harboring EP2 incubated for 15 mins by cAMP assay relative to control; format: functional, cell-based; details: filed as agonist
[21] = target: T1, Neuropeptide FF receptor 2; test: Agonist activity at NPFFR2 (unknown origin) expressed in HEK293T cells harboring EP2 incubated for 15 mins by cAMP assay; format: functional, cell-based
[22] = target: T3, Neuropeptide FF receptor 1; test: Binding affinity to human NPFFR1 by radioligand binding assay
[23] = target: T1, Neuropeptide FF receptor 2; test: Binding affinity to human NPFFR2 by radioligand binding assay
[24] = target: Neuropeptide FF receptor 1 (Rattus norvegicus, UniProt Q9EP86); test: Binding affinity to rat NPFFR1 by radioligand binding assay
[25] = target: Neuropeptide FF receptor 2 (Rattus norvegicus, UniProt Q9EQD2); test: Binding affinity to rat NPFFR2 by radioligand binding assay
[26] = target: T3, Neuropeptide FF receptor 1; test: Displacement of [3H]-FFRF-NH2 from human NPFFR1 expressed in CHO cell membrane by Topcount scintillation counting method; format: cell membranes
[27] = target: T1, Neuropeptide FF receptor 2; test: Displacement of [3H]-FFRF-NH2 from human NPFFR2 expressed in CHO cell membrane by Topcount scintillation counting method; format: cell membranes
[28] = target: T4, Prolactin-releasing peptide receptor (Homo sapiens, UniProt P49683); test: Displacement of [3H]-PrRP-20 from human PrRP receptor expressed in CHO cell membrane by TopCount scintillation counter method; format: cell membranes
T4 sequence (P49683 whole entry): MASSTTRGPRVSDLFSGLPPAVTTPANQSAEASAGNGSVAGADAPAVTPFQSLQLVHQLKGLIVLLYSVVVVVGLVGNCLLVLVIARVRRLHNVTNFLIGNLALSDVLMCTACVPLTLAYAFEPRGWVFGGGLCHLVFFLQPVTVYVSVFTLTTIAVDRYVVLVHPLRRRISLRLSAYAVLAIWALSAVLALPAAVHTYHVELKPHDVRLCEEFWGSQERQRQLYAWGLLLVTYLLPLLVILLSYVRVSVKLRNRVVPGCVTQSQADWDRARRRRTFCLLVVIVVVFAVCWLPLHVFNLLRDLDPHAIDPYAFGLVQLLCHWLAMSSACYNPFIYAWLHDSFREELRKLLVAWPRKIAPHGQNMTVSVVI

KiSS-1 receptor = KiSS-1 receptor (Homo sapiens, UniProt Q969F8); test: Displacement of [125I]-Kp-10 from human KISS1R expressed in CHO cell membrane by TopCount scintillation counter method; format: cell membranes
[29] = target: T5, Pyroglutamylated RF-amide peptide receptor (Homo sapiens, UniProt Q96P65); test: Displacement of [125I]-43RFa from human QRFP receptor expressed in CHO cell membrane by TopCount scintillation counter method; format: cell membranes
T5 sequence (Q96P65 whole entry): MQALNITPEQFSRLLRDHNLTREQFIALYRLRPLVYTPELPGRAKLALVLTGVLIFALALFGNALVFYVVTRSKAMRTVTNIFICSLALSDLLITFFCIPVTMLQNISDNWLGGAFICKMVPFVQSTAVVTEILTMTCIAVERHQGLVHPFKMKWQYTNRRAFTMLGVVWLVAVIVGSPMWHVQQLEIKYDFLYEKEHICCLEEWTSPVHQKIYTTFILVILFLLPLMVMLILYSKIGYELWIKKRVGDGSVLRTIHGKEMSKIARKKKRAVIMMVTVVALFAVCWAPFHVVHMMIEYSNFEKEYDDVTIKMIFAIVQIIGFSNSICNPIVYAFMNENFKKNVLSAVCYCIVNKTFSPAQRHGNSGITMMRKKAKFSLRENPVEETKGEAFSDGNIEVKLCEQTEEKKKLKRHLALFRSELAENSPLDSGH

[30] = target: T3, Neuropeptide FF receptor 1; test: Displacement of [3H]-FFRF-NH2 from human FLAG-tagged NPFFR1 expressed in CHO cell membrane incubated for 30 mins by Topcount scintillation counting method
[31] = target: T1, Neuropeptide FF receptor 2; test: Displacement of [3H]-FFRF-NH2 from human FLAG-tagged NPFFR2 expressed in CHO cell membrane incubated for 30 mins by Topcount scintillation counting method
[32] = target: T1, Neuropeptide FF receptor 2; test: Agonist activity at NPFFR2 (unknown origin) expressed in mouse NIH3T3 cells by receptor selection and amplification technology assay; format: cell-based
[33] = target: T3, Neuropeptide FF receptor 1; test: Displacement of 125I-NPFF from human NPFFR1 incubated for 2 hrs by TopCount scintillation counting method
[34] = target: T1, Neuropeptide FF receptor 2; test: Displacement of 125I-NPFF from human NPFFR2 incubated for 2 hrs by TopCount scintillation counting method

T3 sequence (Q9GZQ6 whole entry): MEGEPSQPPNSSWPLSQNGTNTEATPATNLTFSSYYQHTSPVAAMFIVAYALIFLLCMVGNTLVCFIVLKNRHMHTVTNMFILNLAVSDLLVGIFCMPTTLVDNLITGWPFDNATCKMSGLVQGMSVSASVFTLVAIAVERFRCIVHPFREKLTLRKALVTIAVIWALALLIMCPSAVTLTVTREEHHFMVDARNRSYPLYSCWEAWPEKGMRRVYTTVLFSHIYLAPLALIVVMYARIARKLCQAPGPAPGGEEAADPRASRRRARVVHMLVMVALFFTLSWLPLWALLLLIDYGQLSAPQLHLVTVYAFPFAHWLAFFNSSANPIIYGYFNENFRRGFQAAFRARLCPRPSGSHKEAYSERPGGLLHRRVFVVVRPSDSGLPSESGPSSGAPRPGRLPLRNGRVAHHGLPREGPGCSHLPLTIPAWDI
T2 sequence (P41145 whole entry): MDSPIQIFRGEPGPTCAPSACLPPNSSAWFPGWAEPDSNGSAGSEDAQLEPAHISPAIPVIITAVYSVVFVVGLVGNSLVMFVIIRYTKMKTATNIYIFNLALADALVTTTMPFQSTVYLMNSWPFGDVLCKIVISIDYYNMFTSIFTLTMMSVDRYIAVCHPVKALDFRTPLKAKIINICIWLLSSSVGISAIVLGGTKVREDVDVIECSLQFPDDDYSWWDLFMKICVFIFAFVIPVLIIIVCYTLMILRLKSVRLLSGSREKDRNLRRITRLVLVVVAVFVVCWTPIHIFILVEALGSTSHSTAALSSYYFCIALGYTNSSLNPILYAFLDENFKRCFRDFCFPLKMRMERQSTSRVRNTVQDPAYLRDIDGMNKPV
T1 sequence (Q9Y5X5 whole entry): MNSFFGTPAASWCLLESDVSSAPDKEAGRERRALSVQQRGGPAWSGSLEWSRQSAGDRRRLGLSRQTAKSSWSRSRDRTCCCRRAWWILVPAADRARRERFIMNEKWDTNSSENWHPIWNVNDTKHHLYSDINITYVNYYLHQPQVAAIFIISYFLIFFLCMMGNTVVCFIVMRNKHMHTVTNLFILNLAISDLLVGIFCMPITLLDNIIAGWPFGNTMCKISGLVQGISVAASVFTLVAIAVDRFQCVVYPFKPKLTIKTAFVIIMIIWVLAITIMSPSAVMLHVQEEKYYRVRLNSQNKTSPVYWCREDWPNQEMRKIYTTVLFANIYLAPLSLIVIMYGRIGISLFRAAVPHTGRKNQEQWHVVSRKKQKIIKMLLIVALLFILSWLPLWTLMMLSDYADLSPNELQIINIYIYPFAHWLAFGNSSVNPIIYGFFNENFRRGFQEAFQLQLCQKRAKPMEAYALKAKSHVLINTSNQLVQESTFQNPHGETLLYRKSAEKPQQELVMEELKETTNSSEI
KiSS-1 receptor, sequence (Q969F8 whole entry): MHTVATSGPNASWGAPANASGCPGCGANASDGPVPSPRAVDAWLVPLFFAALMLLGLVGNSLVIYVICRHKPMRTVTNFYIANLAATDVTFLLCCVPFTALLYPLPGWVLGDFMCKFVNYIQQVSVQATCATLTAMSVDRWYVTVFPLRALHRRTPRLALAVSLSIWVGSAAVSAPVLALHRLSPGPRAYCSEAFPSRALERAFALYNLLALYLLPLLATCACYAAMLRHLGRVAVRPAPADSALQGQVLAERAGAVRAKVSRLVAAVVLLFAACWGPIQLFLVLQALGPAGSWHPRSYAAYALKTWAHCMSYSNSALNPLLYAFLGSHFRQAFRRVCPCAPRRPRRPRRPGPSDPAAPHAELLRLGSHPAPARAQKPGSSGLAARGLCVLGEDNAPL
Nociceptin receptor, sequence (P41146 whole entry): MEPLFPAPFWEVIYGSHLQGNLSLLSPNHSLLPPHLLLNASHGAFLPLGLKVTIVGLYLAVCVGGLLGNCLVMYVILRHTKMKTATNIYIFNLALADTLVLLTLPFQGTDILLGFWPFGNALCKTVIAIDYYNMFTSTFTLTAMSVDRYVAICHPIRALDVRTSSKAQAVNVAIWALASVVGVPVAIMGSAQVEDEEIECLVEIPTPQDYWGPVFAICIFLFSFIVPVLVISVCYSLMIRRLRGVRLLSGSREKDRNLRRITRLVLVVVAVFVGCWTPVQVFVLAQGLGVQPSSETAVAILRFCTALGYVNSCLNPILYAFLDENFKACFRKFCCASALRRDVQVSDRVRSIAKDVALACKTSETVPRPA
Neuropeptide FF receptor 1 (Rattus norvegicus, UniProt Q9EP86), sequence (Q9EP86 whole entry): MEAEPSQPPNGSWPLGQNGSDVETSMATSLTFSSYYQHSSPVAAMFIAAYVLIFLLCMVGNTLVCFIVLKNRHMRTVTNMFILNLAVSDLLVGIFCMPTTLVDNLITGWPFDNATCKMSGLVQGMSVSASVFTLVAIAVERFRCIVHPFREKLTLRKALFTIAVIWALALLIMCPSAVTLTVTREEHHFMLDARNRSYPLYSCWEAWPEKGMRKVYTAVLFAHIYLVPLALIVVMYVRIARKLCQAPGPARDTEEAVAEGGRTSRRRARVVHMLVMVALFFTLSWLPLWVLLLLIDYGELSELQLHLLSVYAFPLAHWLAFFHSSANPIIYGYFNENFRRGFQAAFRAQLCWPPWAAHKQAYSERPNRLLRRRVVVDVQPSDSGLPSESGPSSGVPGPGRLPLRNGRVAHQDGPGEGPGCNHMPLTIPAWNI
Mu-type opioid receptor (Homo sapiens), sequence (P35372 whole entry): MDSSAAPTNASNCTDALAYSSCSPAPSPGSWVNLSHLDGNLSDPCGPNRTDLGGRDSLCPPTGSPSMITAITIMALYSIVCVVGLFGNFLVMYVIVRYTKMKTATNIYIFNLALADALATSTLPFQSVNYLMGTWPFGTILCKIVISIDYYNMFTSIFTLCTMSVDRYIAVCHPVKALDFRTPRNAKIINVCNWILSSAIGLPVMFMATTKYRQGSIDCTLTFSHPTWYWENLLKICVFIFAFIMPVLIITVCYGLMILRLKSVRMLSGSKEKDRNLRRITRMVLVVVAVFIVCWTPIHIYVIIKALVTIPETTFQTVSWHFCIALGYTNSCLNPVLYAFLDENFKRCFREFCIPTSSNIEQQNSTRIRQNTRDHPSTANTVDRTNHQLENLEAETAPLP
Neuropeptide FF receptor 2 (Rattus norvegicus, UniProt Q9EQD2), sequence (Q9EQD2 whole entry): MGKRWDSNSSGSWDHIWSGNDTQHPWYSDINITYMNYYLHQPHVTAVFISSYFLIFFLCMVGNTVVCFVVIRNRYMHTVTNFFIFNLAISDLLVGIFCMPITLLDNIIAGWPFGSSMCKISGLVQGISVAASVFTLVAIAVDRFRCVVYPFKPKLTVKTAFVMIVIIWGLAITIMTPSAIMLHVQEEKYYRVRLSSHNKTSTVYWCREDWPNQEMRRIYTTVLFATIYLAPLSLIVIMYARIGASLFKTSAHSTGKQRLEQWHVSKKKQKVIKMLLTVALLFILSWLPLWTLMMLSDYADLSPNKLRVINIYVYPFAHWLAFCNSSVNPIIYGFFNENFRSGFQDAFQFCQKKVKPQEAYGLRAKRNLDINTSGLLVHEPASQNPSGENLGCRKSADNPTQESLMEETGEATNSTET
Delta-type opioid receptor (Homo sapiens), sequence (P41143 whole entry): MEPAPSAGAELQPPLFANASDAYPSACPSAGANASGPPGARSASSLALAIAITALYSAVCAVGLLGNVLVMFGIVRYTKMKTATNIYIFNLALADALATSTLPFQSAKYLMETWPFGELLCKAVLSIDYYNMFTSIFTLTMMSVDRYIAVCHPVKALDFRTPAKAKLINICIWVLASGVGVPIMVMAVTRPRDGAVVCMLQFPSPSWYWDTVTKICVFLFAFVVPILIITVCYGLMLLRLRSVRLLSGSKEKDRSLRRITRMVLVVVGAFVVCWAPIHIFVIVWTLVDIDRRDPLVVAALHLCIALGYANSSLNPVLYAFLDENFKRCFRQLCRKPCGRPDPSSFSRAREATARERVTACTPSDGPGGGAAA

C[C@@H](NC(=O)[C@@H](N)Cc1ccc(O)cc1)C(=O)NCC(=O)N[C@@H](Cc1ccccc1)C(=O)N[C@@H](CCC(N)=O)C(=O)N1CCC[C@H]1C(=O)N[C@@H](CCC(N)=O)C(=O)N[C@@H](CCCNC(=N)N)C(=O)N[C@@H](Cc1ccccc1)C(N)=O (H-Y[dA]GFQPQRF-NH2)
EC50 [1]: 178 nM | Emax [2]: 117%

Cc1cc(O)cc(C)c1C[C@H](N)C(=O)N[C@H](CCCNC(=N)N)C(=O)N[C@H]1Cc2ccccc2CN(CCC(=O)N[C@@H](CCCNC(=N)N)C(=O)N[C@@H](Cc2ccccc2)C(N)=O)C1=O (H-[Dmt][dR][X1]RF-NH2)
EC50 [3]: 108 nM | EC50 (Nociceptin receptor): > 10000 nM | Emax [4]: 92% | Emax [5]: 89% | Emax [6]: 95% | Emax [7]: 88% | Emax [8]: 111%

NC(=O)[C@H](Cc1ccccc1)NC(=O)[C@H](CCCN=C(N)N)NC(=O)C12CC3CC(CC(C3)C1)C2
Ki [9]: 58 nM | Ki [10]: 75 nM | EC50 [11]: 4700 nM

N=C(N)NCCC[C@H](NC(=O)[C@H](CCC(N)=O)NC(=O)[C@@H]1CCCN1C(=O)[C@H](CCC(N)=O)NC(=O)[C@H](Cc1ccccc1)NC(=O)[C@H](Cc1ccccc1)NC(=O)[C@@H]1CCCN1C(=O)[C@@H](N)Cc1ccc(O)cc1)C(=O)N[C@@H](Cc1ccccc1)C(N)=O (H-YPFFQPQRF-NH2)
EC50 [12]: 4.44 nM | EC50 [13]: 599 nM | EC50 [14]: 25.3 nM

N=C(N)N/N=C/c1ccc(-c2ccccc2C(F)(F)F)o1
Efficacy ([15]; filed as agonist): 57.8% | Efficacy [16]: 72.1% | EC50 [17]: 251 nM | Efficacy ([18]; filed as agonist): 93% | EC50 [19]: 1260 nM | Efficacy [20]: 114% | EC50 [21]: 3160 nM

Cc1cc(NC(=N)N)nc2ccccc12
Ki [22]: 13 nM | Ki [23]: 91 nM | Ki [24]: 7 nM | Ki [25]: 185 nM

NC1=NC=C(c2ccc(Cl)c(Cl)c2)CN1
Ki [26]: 1 nM | Ki [27]: 37 nM | Ki [28]: > 5000 nM | Ki (KiSS-1 receptor): > 5000 nM | Ki [29]: > 5000 nM

O=C(N[C@@H](CCCN1CCCCC1)C(=O)NCCc1ccccc1)c1ccccc1-c1ccccc1
Ki [30]: 172 nM | Ki [31]: 560 nM

N=C(N)N/N=C/c1ccc(Br)c(Br)c1
Efficacy [15]: 11% | EC50 [32]: 794 nM | Efficacy [18]: 23% | Ki [33]: 100 nM | Ki [34]: 126 nM
